Results published in ChEMBL document CHEMBL2177025, “Chemical proteomics-based analysis of off-target binding profiles for rosiglitazone and pioglitazone: clues for assessing potential for cardiotoxicity” (J Med Chem, 2012).
Active and inactive are the calls of the source. The rule behind the calls is not given here.

Key:
[1] = molecular target: Ras/Rap GTPase-activating protein SynGAP (Rattus norvegicus) (UniProt Q9QUH6); assay: Binding affinity to RasGTPase-activating protein SynGAP in Sprague-Dawley rat heart homogenate after 15 mins by chromatographic analysis relative to pioglitazone; format: tissue-based
[2] = molecular target: Protein-tyrosine kinase 2-beta (Rattus norvegicus) (UniProt P70600); assay: Binding affinity to focal adhesion kinase 2 in Sprague-Dawley rat heart homogenate after 15 mins by chromatographic analysis; format: tissue-based
[3] = molecular target: Endoplasmic reticulum membrane adapter protein XK (Mus musculus) (UniProt Q9QXY7); assay: Binding affinity to mouse membrane transport protein XK by chromatographic analysis relative to pioglitazone
[4] = molecular target: Voltage-dependent L-type calcium channel subunit alpha-1F (Mus musculus) (UniProt Q9JIS7); assay: Binding affinity to mouse voltage-dependent L-type calcium channel alpha-1F subunit by chromatographic analysis
[5] = molecular target: L-lactate dehydrogenase B chain (Rattus norvegicus) (UniProt P42123); assay: Binding affinity to L-lactate dehydrogenase B chain in Sprague-Dawley rat heart homogenate after 15 mins by chromatographic analysis relative to rosiglitazone; format: tissue-based
Sequence of L-lactate dehydrogenase B chain (Rattus norvegicus) (P42123 whole entry): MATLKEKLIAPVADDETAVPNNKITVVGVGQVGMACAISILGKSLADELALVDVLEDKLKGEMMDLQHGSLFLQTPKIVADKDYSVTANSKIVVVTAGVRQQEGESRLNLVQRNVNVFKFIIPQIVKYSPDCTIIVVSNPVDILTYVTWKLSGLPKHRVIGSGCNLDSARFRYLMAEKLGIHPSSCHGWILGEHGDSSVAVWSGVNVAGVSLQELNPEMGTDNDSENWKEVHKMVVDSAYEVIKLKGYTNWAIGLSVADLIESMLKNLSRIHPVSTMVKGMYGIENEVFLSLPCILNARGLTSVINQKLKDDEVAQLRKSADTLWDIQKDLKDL

[6] = molecular target: Kalirin (Rattus norvegicus) (UniProt P97924); assay: Binding affinity to Huntingtin-associated protein-interacting protein in Sprague-Dawley rat heart homogenate after 15 mins by chromatographic analysis; format: tissue-based
[7] = molecular target: Importin-7 (Mus musculus) (UniProt Q9EPL8); assay: Binding affinity to mouse importin-7 by chromatographic analysis
Sequence of Importin-7 (Mus musculus) (Q9EPL8 whole entry): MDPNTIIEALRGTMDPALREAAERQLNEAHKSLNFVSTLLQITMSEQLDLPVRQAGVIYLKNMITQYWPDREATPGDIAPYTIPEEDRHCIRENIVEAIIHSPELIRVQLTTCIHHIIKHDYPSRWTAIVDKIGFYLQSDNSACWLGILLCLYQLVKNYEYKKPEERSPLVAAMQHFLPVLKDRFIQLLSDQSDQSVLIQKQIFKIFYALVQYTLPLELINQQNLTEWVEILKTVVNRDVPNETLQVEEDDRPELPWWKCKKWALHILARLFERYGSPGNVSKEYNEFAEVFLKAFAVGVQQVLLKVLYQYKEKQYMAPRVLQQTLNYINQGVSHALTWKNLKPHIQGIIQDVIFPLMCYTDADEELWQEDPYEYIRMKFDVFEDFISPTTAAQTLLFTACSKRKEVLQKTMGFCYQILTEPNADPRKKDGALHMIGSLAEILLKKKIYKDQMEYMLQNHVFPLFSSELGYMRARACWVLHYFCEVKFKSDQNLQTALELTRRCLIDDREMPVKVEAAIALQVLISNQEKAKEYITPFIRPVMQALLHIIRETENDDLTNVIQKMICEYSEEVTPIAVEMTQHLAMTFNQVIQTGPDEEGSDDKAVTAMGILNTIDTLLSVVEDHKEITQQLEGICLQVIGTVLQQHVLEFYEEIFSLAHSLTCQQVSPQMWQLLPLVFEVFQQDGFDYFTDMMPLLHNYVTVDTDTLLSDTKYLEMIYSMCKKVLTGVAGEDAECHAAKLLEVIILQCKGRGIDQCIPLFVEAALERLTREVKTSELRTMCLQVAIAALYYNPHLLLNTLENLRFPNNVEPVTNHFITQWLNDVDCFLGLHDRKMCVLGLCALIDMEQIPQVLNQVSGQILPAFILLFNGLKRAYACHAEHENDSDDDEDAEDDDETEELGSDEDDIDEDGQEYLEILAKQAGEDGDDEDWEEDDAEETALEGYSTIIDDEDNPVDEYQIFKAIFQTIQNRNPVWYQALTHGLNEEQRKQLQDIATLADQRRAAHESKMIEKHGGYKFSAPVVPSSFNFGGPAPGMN

[8] = molecular target: Trace amine-associated receptor 7b (Mus musculus) (UniProt Q5QD11); assay: Binding affinity to mouse trace amine-associated receptor 7b by chromatographic analysis
[9] = molecular target: Inactive tyrosine-protein kinase transmembrane receptor ROR1 (Mus musculus) (UniProt Q9Z139); assay: Binding affinity to mouse tyrosine-protein kinase transmembrane receptor ROR1 by chromatographic analysis
Norrin (Mus musculus) = Norrin (Mus musculus) (UniProt P48744); assay: Binding affinity to mouse norrin precursor by chromatographic analysis
Sequence of Norrin (Mus musculus) (P48744 whole entry): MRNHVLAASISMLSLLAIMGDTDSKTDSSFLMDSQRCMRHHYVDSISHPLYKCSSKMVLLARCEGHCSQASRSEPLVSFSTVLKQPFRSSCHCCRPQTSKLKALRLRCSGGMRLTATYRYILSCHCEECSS

[10] = molecular target: Neuronal acetylcholine receptor subunit alpha-10 (Rattus norvegicus) (UniProt Q9JLB5); assay: Binding affinity to neuronal acetylcholine receptor subunit alpha-10 in Sprague-Dawley rat heart homogenate after 15 mins by chromatographic analysis; format: tissue-based
Sequence of Neuronal acetylcholine receptor subunit alpha-10 (Rattus norvegicus) (Q9JLB5 whole entry): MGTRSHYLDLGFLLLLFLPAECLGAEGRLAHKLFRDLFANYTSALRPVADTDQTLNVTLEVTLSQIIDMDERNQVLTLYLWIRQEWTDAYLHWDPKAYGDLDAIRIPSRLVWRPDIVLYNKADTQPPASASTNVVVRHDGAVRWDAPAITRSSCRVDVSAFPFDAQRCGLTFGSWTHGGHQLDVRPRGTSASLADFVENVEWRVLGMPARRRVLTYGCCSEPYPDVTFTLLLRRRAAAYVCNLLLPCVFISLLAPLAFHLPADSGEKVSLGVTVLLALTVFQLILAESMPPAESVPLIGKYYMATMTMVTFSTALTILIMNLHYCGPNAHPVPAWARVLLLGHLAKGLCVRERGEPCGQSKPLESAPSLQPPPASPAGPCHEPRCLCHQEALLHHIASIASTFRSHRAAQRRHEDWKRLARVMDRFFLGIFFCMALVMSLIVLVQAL

[11] = molecular target: Serine/threonine-protein kinase WNK1 (Mus musculus) (UniProt P83741); assay: Binding affinity to mouse serine/threonine-protein kinase WNK1 by chromatographic analysis relative to rosiglitazone
Sequence of Serine/threonine-protein kinase WNK1 (Mus musculus) (P83741 whole entry): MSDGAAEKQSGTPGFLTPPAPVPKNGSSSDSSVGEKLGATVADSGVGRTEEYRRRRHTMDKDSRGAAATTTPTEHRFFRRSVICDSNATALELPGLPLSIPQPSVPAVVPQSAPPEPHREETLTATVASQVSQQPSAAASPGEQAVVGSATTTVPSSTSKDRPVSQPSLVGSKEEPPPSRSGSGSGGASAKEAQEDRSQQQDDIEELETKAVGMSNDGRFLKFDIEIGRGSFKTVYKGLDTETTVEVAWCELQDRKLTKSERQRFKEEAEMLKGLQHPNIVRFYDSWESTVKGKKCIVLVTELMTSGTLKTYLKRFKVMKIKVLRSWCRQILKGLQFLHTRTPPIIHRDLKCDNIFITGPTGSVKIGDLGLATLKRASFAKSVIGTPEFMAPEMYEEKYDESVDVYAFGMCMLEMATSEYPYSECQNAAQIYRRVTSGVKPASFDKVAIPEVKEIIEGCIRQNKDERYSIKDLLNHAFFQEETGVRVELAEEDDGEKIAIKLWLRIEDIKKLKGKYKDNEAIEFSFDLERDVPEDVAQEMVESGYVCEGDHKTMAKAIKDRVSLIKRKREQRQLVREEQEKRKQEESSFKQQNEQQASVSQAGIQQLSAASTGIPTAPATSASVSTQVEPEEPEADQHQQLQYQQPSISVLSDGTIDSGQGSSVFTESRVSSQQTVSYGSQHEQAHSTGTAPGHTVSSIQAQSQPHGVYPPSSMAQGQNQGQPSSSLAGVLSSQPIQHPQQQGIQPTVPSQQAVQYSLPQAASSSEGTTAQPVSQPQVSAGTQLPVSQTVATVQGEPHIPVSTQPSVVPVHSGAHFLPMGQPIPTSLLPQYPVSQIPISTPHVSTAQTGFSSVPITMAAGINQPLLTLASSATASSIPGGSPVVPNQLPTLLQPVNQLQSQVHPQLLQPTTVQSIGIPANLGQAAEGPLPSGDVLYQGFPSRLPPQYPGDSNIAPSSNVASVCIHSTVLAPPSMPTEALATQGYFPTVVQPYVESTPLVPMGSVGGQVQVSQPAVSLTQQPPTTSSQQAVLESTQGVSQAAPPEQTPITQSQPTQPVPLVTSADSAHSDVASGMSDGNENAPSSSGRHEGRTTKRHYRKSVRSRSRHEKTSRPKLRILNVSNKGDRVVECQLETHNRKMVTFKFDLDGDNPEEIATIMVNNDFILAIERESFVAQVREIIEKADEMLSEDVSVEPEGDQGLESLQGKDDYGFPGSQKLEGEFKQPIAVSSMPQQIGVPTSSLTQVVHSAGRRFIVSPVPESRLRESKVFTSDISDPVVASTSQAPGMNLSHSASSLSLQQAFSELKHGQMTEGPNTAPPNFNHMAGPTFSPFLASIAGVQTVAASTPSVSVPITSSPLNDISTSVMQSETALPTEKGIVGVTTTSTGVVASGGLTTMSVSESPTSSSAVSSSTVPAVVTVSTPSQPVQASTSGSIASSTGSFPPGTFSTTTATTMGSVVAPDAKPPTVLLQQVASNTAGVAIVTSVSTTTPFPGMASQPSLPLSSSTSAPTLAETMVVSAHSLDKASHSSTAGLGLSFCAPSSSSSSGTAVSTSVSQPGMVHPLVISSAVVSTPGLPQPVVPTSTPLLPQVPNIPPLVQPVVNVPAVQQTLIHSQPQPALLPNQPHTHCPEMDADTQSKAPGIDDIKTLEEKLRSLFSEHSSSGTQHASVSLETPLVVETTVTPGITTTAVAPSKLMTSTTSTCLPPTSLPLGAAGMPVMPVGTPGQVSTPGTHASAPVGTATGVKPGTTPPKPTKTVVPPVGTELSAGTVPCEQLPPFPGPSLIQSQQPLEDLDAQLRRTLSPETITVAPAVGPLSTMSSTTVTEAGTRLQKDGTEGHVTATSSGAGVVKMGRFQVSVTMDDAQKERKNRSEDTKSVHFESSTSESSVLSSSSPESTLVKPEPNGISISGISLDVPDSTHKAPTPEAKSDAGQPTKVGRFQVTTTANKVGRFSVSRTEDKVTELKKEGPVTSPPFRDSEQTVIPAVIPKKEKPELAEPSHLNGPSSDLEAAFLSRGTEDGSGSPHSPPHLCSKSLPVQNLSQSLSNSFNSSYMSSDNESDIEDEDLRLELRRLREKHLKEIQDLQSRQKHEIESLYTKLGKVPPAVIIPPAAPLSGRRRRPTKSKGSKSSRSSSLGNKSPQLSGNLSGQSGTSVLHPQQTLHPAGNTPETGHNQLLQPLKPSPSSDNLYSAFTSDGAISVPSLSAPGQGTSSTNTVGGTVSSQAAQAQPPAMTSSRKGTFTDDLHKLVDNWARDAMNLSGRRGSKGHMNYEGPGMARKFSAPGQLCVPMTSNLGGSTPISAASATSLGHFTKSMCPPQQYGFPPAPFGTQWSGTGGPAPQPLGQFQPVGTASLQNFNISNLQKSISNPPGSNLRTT

[12] = molecular target: Afadin- and alpha-actinin-binding protein (Rattus norvegicus) (UniProt Q8CGZ2); assay: Binding affinity to afadin- and alpha-actinin-binding protein in Sprague-Dawley rat heart homogenate after 15 mins by chromatographic analysis; format: tissue-based
Sequence of Afadin- and alpha-actinin-binding protein (Rattus norvegicus) (Q8CGZ2 whole entry): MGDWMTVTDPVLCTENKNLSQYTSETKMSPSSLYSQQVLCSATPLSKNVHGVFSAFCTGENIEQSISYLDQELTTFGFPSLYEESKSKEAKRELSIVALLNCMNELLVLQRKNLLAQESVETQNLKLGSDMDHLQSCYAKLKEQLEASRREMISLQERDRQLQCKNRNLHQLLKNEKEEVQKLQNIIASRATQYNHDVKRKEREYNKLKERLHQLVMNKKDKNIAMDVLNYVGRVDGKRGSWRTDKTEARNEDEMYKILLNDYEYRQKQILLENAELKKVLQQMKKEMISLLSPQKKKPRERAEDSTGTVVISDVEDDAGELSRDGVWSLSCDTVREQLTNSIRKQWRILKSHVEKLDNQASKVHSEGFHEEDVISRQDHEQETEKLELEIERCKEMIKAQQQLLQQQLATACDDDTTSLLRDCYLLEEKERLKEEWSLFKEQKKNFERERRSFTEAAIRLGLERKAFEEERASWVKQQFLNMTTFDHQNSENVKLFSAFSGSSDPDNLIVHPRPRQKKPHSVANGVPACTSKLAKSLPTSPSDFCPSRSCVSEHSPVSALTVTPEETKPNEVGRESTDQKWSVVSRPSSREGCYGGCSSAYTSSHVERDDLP

[13] = molecular target: T1, Cardiotrophin-like cytokine factor 1 (Mus musculus) (UniProt Q9QZM3); assay: Binding affinity to mouse cardiotrophin-like cytokine factor 1 by chromatographic analysis
T1 sequence (whole entry): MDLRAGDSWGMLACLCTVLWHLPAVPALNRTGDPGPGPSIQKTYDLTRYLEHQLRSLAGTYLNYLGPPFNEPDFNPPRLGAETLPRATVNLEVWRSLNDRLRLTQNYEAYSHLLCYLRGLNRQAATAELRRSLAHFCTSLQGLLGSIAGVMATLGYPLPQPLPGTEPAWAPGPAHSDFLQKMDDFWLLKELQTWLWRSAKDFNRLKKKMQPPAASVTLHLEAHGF

[14] = molecular target: Neurofibromin (Mus musculus) (UniProt Q04690); assay: Binding affinity to mouse neurofibromin by chromatographic analysis relative to pioglitazone
[15] = molecular target: Sodium-dependent multivitamin transporter (Rattus norvegicus) (UniProt O70247); assay: Binding affinity to sodium-dependent multivitamin transporter in Sprague-Dawley rat heart homogenate after 15 mins by chromatographic analysis; format: tissue-based
[16] = molecular target: Serine/threonine-protein kinase MAK (Mus musculus) (UniProt Q04859); assay: Binding affinity to mouse serine/threonine-protein kinase MAK by chromatographic analysis
[17] = molecular target: Protein kinase C and casein kinase substrate in neurons protein 2 (Mus musculus) (UniProt Q9WVE8); assay: Binding affinity to mouse protein kinase C and casein kinase substrate in neurons protein 2 by chromatographic analysis
Dystonin (Mus musculus) = Dystonin (Mus musculus) (UniProt Q91ZU6); assay: Binding affinity to mouse bullous pemphigoid antigen 1 by chromatographic analysis
[18] = molecular target: T2, Long-chain specific acyl-CoA dehydrogenase, mitochondrial (Rattus norvegicus) (UniProt P15650); assay: Binding affinity to mitochondrial long-chain specific acyl-CoA dehydrogenase in Sprague-Dawley rat heart homogenate after 15 mins by chromatographic analysis relative to rosiglitazone; format: tissue-based
T2 sequence (whole entry): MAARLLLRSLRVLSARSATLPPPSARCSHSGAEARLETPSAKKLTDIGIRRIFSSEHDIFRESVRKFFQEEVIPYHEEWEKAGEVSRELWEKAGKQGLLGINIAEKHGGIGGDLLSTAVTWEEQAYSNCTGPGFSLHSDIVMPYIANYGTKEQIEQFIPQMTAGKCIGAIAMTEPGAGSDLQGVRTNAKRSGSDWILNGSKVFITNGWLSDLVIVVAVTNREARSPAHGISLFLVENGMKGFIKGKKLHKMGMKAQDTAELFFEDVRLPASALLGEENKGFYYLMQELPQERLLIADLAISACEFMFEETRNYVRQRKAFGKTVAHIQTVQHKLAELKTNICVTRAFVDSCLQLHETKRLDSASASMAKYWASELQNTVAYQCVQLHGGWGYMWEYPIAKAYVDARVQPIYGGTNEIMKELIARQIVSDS

[19] = molecular target: H(+)/Cl(-) exchange transporter 6 (Mus musculus) (UniProt O35454); assay: Binding affinity to mouse chloride channel protein 6 after 15 mins by chromatographic analysis
[20] = molecular target: ATP synthase F(1) complex subunit alpha, mitochondrial (Rattus norvegicus) (UniProt P15999); assay: Binding affinity to mitochondrial ATP synthase alpha chain in Sprague-Dawley rat heart homogenate after 15 mins by chromatographic analysis; format: tissue-based
[21] = molecular target: ATP synthase F(1) complex catalytic subunit beta, mitochondrial (Rattus norvegicus) (UniProt P10719); assay: Binding affinity to mitochondrial ATP synthase beta chain in Sprague-Dawley rat heart homogenate after 15 mins by chromatographic analysis; format: tissue-based
[22] = molecular target: Transcription factor SOX-5 (Mus musculus) (UniProt P35710); assay: Binding affinity to mouse transcription factor SOX-5 after 15 mins by chromatographic analysis
[23] = molecular target: Dynactin subunit 1 (Mus musculus) (UniProt O08788); assay: Binding affinity to mouse dynactin-1 by chromatographic analysis

SMILES	Activity [2]	Activity [4]	Activity [5]	Activity [6]	Activity [7]	Activity [8]	Activity [9]	Activity (Norrin (Mus musculus))	Activity [10]	Activity [12]	Activity [13]	Activity [15]	Activity [16]	Activity [17]	Activity (Dystonin (Mus musculus))	Activity [18]	Activity [19]	Activity [20]	Activity [21]	Activity [22]	also measured
CN(CCOc1ccc(CC2SC(=O)NC2=O)cc1)c1ccccn1 (configuration not stated)	inactive	Active	Active	Active	Active	inactive	Active	Active	Active	Active	Active	Active	Active	Active	Active	Active	Active	Active	Active	Active	fold change (FC) [1]: 2.12; fold change (FC) [3]: 1.88; Activity [11]: Active; fold change (FC) [14]: 3.1; Activity [23]: Active
CCc1ccc(CCOc2ccc(CC3SC(=O)NC3=O)cc2)nc1 (configuration not stated)	Active	Active	Active	Active	Active	Active	Active	inactive	Active	Active	Active	Active	Active	inactive	Active	Active	Active	Active	Active	Active	Activity [1]: Active; Activity [3]: Active; fold change (FC) [5]: 2.26; fold change (FC) [11]: 3.24; Activity [14]: Active; fold change (FC) [18]: 5.78; Activity [23]: Active
